Measurements as given in patent US11492335B2, “Aryl or heteroaryl triazolone derivatives or salts thereof, or pharmaceutical compositions comprising the same” (YUHAN CORPORATION, priority 2018, dated 2022).
Structures can show the parent of a compound that is named as a salt. Where two headings read alike, the source gives them in different places.

Experiments:
Type in all cases: biochemical
recombinant human VAP-1 = molecular target: T1, recombinant human VAP-1 (Homo sapiens, UniProt Q16853); assay: Activity on recombinant human VAP-1, Amplex Red HRP-coupled hydrogen peroxide assay, benzylamine substrate; conditions: recombinant human VAP-1, benzylamine substrate, read-out: Inhibitory Activity (IC50, nM) human VAP-1
T1 construct: purchased R&D systems
T1 sequence (Q16853 1-763): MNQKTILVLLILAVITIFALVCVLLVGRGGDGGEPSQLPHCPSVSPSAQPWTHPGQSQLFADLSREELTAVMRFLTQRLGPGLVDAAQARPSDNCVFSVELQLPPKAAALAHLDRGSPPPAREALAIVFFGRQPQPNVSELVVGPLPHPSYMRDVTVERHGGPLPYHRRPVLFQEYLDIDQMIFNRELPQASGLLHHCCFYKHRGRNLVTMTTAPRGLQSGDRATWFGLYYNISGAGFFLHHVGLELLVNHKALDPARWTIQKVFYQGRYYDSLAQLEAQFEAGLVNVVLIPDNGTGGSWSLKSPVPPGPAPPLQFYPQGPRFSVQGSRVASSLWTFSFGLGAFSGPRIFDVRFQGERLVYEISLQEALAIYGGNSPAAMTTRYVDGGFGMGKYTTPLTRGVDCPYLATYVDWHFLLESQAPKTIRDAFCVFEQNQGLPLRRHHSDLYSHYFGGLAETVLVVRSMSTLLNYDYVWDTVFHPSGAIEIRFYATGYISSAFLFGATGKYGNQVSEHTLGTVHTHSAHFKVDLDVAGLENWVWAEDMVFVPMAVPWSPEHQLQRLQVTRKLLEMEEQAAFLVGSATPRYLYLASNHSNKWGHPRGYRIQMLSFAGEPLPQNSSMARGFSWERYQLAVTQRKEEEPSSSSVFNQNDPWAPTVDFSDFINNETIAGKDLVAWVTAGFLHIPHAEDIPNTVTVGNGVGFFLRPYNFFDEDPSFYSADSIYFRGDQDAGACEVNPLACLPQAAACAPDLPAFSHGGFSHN
Method in brief: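 H2O2 generation from 1 mM benzylamine was coupled via 1 U/mL HRP to 200 uM Amplex Red; inhibitors, serially diluted 1:3 over 8 points with under 1% final DMSO, had been preincubated 30 min at 37 °C. IC50 from percentage drop in rate.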

[1] = molecular target: T2, recombinant human MAO-A (monoamine oxidase-A) (Homo sapiens, UniProt P21397); assay: Activity on recombinant human MAO-A, Amplex Red method, 0.5 mM tyramine substrate; conditions: read-out: Inhibitory Activity (IC50, nM) MAO-A
T2 construct: purchased Sigma-Aldrich
T2 sequence (P21397 1-527): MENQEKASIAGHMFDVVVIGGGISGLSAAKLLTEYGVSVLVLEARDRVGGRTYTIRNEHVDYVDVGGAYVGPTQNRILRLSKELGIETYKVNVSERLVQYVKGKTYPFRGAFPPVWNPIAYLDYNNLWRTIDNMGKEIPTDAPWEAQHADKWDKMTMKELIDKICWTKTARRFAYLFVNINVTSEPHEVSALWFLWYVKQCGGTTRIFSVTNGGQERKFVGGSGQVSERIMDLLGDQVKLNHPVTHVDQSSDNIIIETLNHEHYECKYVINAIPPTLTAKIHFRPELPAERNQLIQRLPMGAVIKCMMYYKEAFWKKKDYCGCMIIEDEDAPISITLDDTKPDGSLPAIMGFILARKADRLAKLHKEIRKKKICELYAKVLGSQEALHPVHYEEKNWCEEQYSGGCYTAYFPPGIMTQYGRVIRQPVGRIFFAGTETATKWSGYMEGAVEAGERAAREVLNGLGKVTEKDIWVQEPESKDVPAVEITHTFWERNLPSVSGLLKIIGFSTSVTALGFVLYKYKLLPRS
Method in brief: (§1)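 First, serially diluted compounds were incubated with recombinant enzyme in 50 mM sodium phosphate, pH 7.4, for 30 min at 37° C. Next, Amplex Red (200 uM), HRP (1 U/mL) and tyramine (0.5 mM, MAO-A) or benzylamine (1 mM, MAO-B) were added. Then fluorescence was monitored over 1-2 h and IC50 fitted.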

[2] = molecular target: T3, recombinant human MAO-B (monoamine oxidase-B) (Homo sapiens, UniProt P27338); assay: Activity on recombinant human MAO-B, Amplex Red method, 1 mM benzylamine substrate; conditions: read-out: Inhibitory Activity (IC50, nM) MAO-B
T3 construct: purchased Sigma-Aldrich
T3 sequence (P27338 1-520): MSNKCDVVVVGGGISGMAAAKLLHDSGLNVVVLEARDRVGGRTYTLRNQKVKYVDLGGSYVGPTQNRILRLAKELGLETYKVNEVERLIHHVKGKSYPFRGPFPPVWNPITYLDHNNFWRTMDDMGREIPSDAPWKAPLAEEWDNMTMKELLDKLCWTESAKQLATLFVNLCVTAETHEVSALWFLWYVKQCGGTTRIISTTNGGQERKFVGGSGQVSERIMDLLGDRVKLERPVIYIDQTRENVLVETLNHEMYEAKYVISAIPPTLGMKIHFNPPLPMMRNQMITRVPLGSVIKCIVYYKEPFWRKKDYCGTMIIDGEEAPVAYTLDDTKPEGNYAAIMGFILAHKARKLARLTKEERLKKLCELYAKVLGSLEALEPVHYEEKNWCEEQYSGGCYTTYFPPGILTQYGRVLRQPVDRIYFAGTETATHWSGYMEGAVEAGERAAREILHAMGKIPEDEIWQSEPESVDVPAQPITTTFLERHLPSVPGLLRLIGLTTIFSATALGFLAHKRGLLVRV
Method in brief: as §1

[3] = molecular target: T4, recombinant human DAO (diamine oxidase) (Homo sapiens, UniProt P19801); assay: Activity on recombinant human DAO, Amplex Red method, 1 mM putrescine substrate; conditions: recombinant human DAO, read-out: Inhibitory Activity (IC50, nM) DAO
T4 construct: purchased R&D systems
T4 sequence (P19801 20-751): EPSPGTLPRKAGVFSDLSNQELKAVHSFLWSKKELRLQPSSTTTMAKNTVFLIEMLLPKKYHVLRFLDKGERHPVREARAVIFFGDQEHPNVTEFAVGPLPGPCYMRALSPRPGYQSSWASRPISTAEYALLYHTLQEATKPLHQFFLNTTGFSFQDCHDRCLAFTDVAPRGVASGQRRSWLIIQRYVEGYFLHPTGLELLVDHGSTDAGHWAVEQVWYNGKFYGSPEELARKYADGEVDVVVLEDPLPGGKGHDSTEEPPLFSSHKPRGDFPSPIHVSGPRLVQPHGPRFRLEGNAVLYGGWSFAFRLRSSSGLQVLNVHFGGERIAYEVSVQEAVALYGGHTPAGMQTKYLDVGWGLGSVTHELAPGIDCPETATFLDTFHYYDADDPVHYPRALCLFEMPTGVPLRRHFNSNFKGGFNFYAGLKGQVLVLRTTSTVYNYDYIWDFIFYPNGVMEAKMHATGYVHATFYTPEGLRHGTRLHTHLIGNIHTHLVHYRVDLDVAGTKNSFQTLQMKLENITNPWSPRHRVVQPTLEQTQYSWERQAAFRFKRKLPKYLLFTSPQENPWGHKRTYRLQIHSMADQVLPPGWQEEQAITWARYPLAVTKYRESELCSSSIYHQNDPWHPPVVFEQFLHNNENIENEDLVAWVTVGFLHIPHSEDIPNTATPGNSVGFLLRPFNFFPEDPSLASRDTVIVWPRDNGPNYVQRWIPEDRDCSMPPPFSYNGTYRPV
Method in brief: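 Inhibition of recombinant human DAO (diamine oxidase, R&D systems) was assessed with the Amplex Red Hydrogen Peroxide Assay Kit. Hydrogen peroxide produced from 1 mM putrescine was detected through an HRP-coupled reaction that converts Amplex Red into fluorescent resorufin, read at 544 nm excitation and 590 nm emission. IC50 values came from four-parameter logistic fits in GraphPad Prism.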

[4] = 1 mM putrescine, * = between 10 and 100 nM, ** = between 300 and 1000 nM

Row | IC50 (recombinant human VAP-1; 30 min preincubation at 37° C.) [nM] | IC50 ([1]; 0.5 mM tyramine) [nM] | IC50 ([2]; 1 mM benzylamine) [nM] | IC50 [3, 4] [nM] | IC50 (recombinant human VAP-1) [nM] | IC50 ([1]; 0.5 mM tyramine substrate) [nM] | IC50 ([2]; 1 mM benzylamine substrate) [nM] | IC50 ([3]; 1 mM putrescine substrate) [nM] | IC50 ([3]; 1 mM putrescine substrate, bound qualified by footnote * / **) [nM] | SMILES
1 | 0.78 | > 100000 | 3000 | < 10 | – | – | – | – | – | NC/C(=C\F)Cn1ncn(-c2cccc(-c3ccc(C(F)(F)F)nc3)c2)c1=O [Example 84, 2-[(2E)-2-(aminomethyl)-3-fluoroprop-2-en-1-yl]-4-{3-[6-(trifluoromethyl)pyridin-3-yl]phenyl}-2,4-dihydro-3H-1,2,4-triazol-3-one hydrochloride]
2 | – | – | – | – | 0.89 | > 100000 | > 10000 | < 10 | – | NC/C(=C\F)Cn1ncn(-c2ccnc(-c3ccc(C(=O)N4CCOCC4)cc3)c2)c1=O [Example 208, 2-[(2E)-2-(aminomethyl)-3-fluoroprop-2-en-1-yl]-4-{2-[4-(morpholin-4-ylcarbonyl)phenyl]pyridin-4-yl}-2,4-dihydro-3H-1,2,4-triazol-3-one hydrochloride]
3 | 5.4 | 2100 | 85 | 290 | – | – | – | – | – | NC/C(=C/F)Cn1ncn(-c2ccc(F)c(F)c2)c1=O [Example 9, 2-[(2Z)-2-(aminomethyl)-3-fluoroprop-2-en-1-yl]-4-(3,4-difluorophenyl)-2,4-dihydro-3H-1,2,4-triazol-3-one]
4 | 7.3 | 400 | 25 | 333 | – | – | – | – | – | NC/C(=C/F)Cn1ncn(-c2c(F)cc(Br)cc2F)c1=O [Example 21, 2-[(2Z)-2-(aminomethyl)-3-fluoroprop-2-en-1-yl]-4-(4-bromo-2,6-difluorophenyl)-2,4-dihydro-3H-1,2,4-triazol-3-one hydrochloride]
5 | – | – | – | – | 0.6 | > 100000 | 23000 | 4 | – | CN(C)c1ccc(-c2cccc(-n3cnn(C/C(=C/F)CN)c3=O)n2)cn1 [Example 188, 2-[(2E)-2-(aminomethyl)-3-fluoroprop-2-en-1-yl]-4-[6′-(dimethylamino)-2,3′-bipyridin-6-yl]-2,4-dihydro-3H-1,2,4-triazol-3-one hydrochloride]
6 | 0.69 | > 100000 | 1460 | 37 | – | – | – | – | – | NC/C(=C\F)Cn1ncn(-c2cccc(-c3ccc4c(c3)OCCO4)c2)c1=O [Example 95, 2-[(2E)-2-(aminomethyl)-3-fluoroprop-2-en-1-yl]-4-[3-(2,3-dihydro-1,4-benzodioxin-6-yl)phenyl]-2,4-dihydro-3H-1,2,4-triazol-3-one hydrochloride]
7 | – | – | – | – | 1 | > 100000 | > 10000 | 4 | – | CN1CNc2cc(/C=C/c3cccc(-n4cnn(C/C(=C/F)CN)c4=O)n3)cnc21 [Example 240, 2-[(E)-2-(aminomethyl)-3-fluoro-allyl]-4-[6-[(E)-2-(3-methyl-1,2-dihydroimidazo[4,5-b]pyridin-6-yl)vinyl]-2-pyridyl]-1,2,4-triazol-3-one hydrochloride]
8 | 0.45 | > 100000 | 10 | < 1 | – | – | – | – | – | CS(=O)(=O)c1ccc(-c2ccc(-n3cnn(C/C(=C\F)CN)c3=O)nc2)cc1 [Example 129, 2-[(2Z)-2-(aminomethyl)-3-fluoroprop-2-en-1-yl]-4-{5-[4-(methylsulfonyl)phenyl]pyridin-2-yl}-2,4-dihydro-3H-1,2,4-triazol-3-one hydrochloride]
9 | – | – | – | – | 1.4 | > 100000 | 250 | 0.4 | – | Cn1nc(C(F)(F)F)cc1-c1cccc(-n2cnn(C/C(=C/F)CN)c2=O)n1 [Example 192, 2-[(2E)-2-(aminomethyl)-3-fluoroprop-2-en-1-yl]-4-{6-[1-methyl-3-(trifluoromethyl)-1H-pyrazol-5-yl]pyridin-2-yl}-2,4-dihydro-3H-1,2,4-triazol-3-one hydrochloride]
10 | – | – | – | – | 4.6 | > 100000 | 1900 | – | < 100 | NC/C(=C\F)Cn1ncn(-c2cccc(-c3ccc4c(c3)NC(=O)CO4)n2)c1=O [Example 199, hydrochloride]
11 | 1.8 | > 100000 | > 10000 | 16 | – | – | – | – | – | NC/C(=C\F)Cn1ncn(-c2cccc(Br)n2)c1=O [Example 37, 2-[(2E)-2-(aminomethyl)-3-fluoroprop-2-en-1-yl]-4-(6-bromopyridin-2-yl)-2,4-dihydro-3H-1,2,4-triazol-3-one]
12 | – | – | – | – | 14 | 96000 | 3500 | 290 | – | Cc1ccc(-c2cc(C)c3c(c2)CCC(=O)N3)nc1-n1cnn(C/C(=C/F)CN)c1=O [Example 215, 6-(6-{1-[(2E)-2-(aminomethyl)-3-fluoroprop-2-en-1-yl]-5-oxo-1,5-dihydro-4H-1,2,4-triazol-4-yl}-5-methylpyridin-2-yl)-8-methyl-3,4-dihydroquinolin-2(1H)-one hydrochloride]
